The values that follow come from patent publication US20220340633A1 (Adepthera LLC, priority 2016, published 2022).

The structures appear in SMILES notation. “Also recorded” adds a separate entry of the source. Positions of bridges follow the written chain, without caps; N, C: chain ends. Non-standard residues stand in square brackets, D forms with d. Residues, ends and D or L forms follow the SMILES beside them. *: point of attachment. Palmitoyl = CCCCCCCCCCCCCCCC(=O)*; AEEA = NCCOCCOCC(=O)O

For assay [1], the system named is primary human lymphatic endothelia cells (HLEC). As to the kind of experiment: HLEC survival in medium with 0.1% FBS, MTS assay. The settings on record: 30, 100, and 300 nM, 72 hrs.
Method: The cells were cultured for 72 hrs, and cell viability was assayed with the MTS assay (Promega).
The next assay has as its target CLR/RAMP1 receptor (Homo sapiens, UniProt O60894+Q16602). The assay can be described thus: CLR/RAMP1 cAMP receptor activation assay (agonist). The assay is classed as cell-based. Set-up: host or cells: 1321N1 cells. The settings on record: 1321-N1, read-out: CLR/RAMP 1 Max Activity % of positive control, 1321N1 cells; % of positive control (β-CGRP).
The target in a further assay is T1, CLR/RAMP2 receptor (Homo sapiens, UniProt O60895+Q16602).
T1 construct: host or cells: CHO-K1 cells
T1 sequence (Q16602 23-461): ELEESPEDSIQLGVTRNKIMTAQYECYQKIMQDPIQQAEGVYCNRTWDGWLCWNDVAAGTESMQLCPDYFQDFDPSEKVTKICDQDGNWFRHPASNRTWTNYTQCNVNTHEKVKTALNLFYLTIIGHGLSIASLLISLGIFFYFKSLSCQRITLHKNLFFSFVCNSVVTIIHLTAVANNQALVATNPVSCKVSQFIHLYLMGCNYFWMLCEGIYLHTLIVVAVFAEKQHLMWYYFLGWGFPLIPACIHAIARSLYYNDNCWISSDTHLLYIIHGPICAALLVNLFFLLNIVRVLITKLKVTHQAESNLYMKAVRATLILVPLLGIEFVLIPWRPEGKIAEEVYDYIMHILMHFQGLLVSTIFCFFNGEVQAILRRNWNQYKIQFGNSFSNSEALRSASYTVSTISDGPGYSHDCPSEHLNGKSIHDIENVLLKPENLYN
T1 sequence (O60895 43-175): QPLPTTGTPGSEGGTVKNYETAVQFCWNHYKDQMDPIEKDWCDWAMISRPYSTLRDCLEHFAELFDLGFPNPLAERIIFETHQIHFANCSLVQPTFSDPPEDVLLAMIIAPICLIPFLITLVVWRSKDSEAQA
As to the kind of experiment: CLR/RAMP2 arrestin receptor activation assay (agonist). In kind it is cell-based. As to conditions: for Emax: CHO-K1, read-out: CLR/RAMP 2 Max Activity % of positive control, CHO-K1 cells, % of positive control (ADM).

Sequence of CLR/RAMP1 receptor (Q16602 23-461): as the sequence (Q16602 23-461) above
Sequence of CLR/RAMP1 receptor (O60894 27-148): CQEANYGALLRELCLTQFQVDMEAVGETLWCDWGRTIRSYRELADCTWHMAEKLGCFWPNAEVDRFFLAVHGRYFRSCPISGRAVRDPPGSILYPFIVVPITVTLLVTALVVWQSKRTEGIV
Method for CLR/RAMP1 receptor: (§1) Using a receptor activation assay, the dose-dependent stimulatory response of peptide agonists of the present invention on a CLR/RAMP1 receptor, a CLR/RAMP2, or a CLR/RAMP3 receptor complex was determined. A cell line carrying the recombinant CLR/RAMP1, CLR/RAMP2, or a CLR/RAMP3 receptor was employed in the assay. Peptide agonist activities were tested, in duplicate, at 10 different concentrations, starting with 1.0 μM and serially diluted 3-fold, in DMSO. […] The CLR/RAMP1 cAMP, CLR/RAMP2 arrestin assays, and CLR/RAMP3 cAMP (DiscoveRx, Fremont, Calif.) were used.
Method for CLR/RAMP2 receptor: as §1

In the case of `CCCCCCCCCCCCCCCC(=O)N[C@@H](CCCCN)C(=O)NCC(=O)N[C@H]1CSSC[C@@H](C(=O)N[C@H](C(=O)N[C@H](C(=O)N[C@@H](CCC(N)=O)C(=O)N[C@@H](CCCCN)C(=O)N[C@@H](CC(C)C)C(=O)N[C@@H](C)C(=O)N[C@@H](Cc2c[nH]cn2)C(=O)N[C@@H](CCC(N)=O)C(=O)N[C@H](C(=O)N[C@@H](Cc2ccc(O)cc2)C(=O)N[C@@H](CCC(N)=O)C(=O)N[C@@H](Cc2ccccc2)C(=O)N[C@H](C(=O)N[C@@H](CC(=O)O)C(=O)N[C@@H](CCCCN)C(=O)N[C@@H](CC(=O)O)C(=O)N[C@@H](CCCCN)C(=O)N[C@@H](CC(=O)O)C(=O)N[C@@H](CC(N)=O)C(=O)N[C@@H](CO)C(=O)N[C@@H](C)C(=O)N2CCC[C@H]2C(=O)N[C@H](C(=O)N[C@@H](CC(=O)O)C(=O)N2CCC[C@H]2C(=O)N[C@@H](CO)C(=O)N[C@@H](CO)C(=O)N2CCC[C@H]2C(=O)N[C@@H](Cc2c[nH]cn2)C(=O)N[C@@H](CO)C(=O)N[C@@H](Cc2ccc(O)cc2)C(N)=O)C(C)C)[C@@H](C)O)[C@@H](C)CC)C(C)C)[C@@H](C)O)NC(=O)[C@H]([C@@H](C)O)NC(=O)CNC(=O)[C@H](Cc2ccccc2)NC(=O)[C@H](CCCNC(=N)N)NC1=O` [SEQ ID NO: 30], the “HLEC survival (in words)” value in assay [1] is “dose-dependently stimulated; also recorded: significantly promote”.
The same measure, in the same setting: the result for `CCCCCCCCCCCCCCCC(=O)NCCCC[C@H](NC(C)=O)C(=O)NCC(=O)N[C@H]1CSSC[C@@H](C(=O)N[C@H](C(=O)N[C@H](C(=O)N[C@@H](CCC(N)=O)C(=O)N[C@@H](CCCCN)C(=O)N[C@@H](CC(C)C)C(=O)N[C@@H](C)C(=O)N[C@@H](Cc2c[nH]cn2)C(=O)N[C@@H](CCC(N)=O)C(=O)N[C@H](C(=O)N[C@@H](Cc2ccc(O)cc2)C(=O)N[C@@H](CCC(N)=O)C(=O)N[C@@H](Cc2ccccc2)C(=O)N[C@H](C(=O)N2CCC[C@H]2C(=O)N[C@@H](C)C(=O)NCC(=O)N[C@@H](CCCNC(=N)N)C(=O)N[C@@H](CCC(N)=O)C(=O)N[C@@H](CC(=O)O)C(=O)N[C@@H](CO)C(=O)N[C@@H](C)C(=O)N2CCC[C@H]2C(=O)N[C@H](C(=O)N[C@@H](CC(=O)O)C(=O)N2CCC[C@H]2C(=O)N[C@@H](CO)C(=O)N[C@@H](CO)C(=O)N2CCC[C@H]2C(=O)N[C@@H](Cc2c[nH]cn2)C(=O)N[C@@H](CO)C(=O)N[C@@H](Cc2ccc(O)cc2)C(N)=O)C(C)C)[C@@H](C)O)[C@@H](C)CC)C(C)C)[C@@H](C)O)NC(=O)[C@H]([C@@H](C)O)NC(=O)CNC(=O)[C@H](Cc2ccccc2)NC(=O)[C@H](CCCNC(=N)N)NC1=O` [SEQ ID NO: 33] reads “dose-dependently stimulated; also recorded: significantly promote”.
For `CCCCCCCCCCCCCCCC(=O)NCCCC[C@H](NC(=O)COCCOCCN)C(=O)NCC(=O)N[C@H]1CSSC[C@@H](C(=O)N[C@H](C(=O)N[C@H](C(=O)N[C@@H](CCC(N)=O)C(=O)N[C@@H](CCCCN)C(=O)N[C@@H](CC(C)C)C(=O)N[C@@H](C)C(=O)N[C@@H](Cc2c[nH]cn2)C(=O)N[C@@H](CCC(N)=O)C(=O)N[C@H](C(=O)N[C@@H](Cc2ccc(O)cc2)C(=O)N[C@@H](CCC(N)=O)C(=O)N[C@@H](Cc2ccccc2)C(=O)N[C@H](C(=O)N[C@@H](CC(=O)O)C(=O)N[C@@H](CCCCN)C(=O)N[C@@H](CC(=O)O)C(=O)N[C@@H](CCCCN)C(=O)N[C@@H](CCC(N)=O)C(=O)N[C@@H](CC(=O)O)C(=O)N[C@@H](CO)C(=O)N[C@@H](C)C(=O)N2CCC[C@H]2C(=O)N[C@H](C(=O)N[C@@H](CC(=O)O)C(=O)N2CCC[C@H]2C(=O)N[C@@H](CO)C(=O)N[C@@H](CO)C(=O)N2CCC[C@H]2C(=O)N[C@@H](Cc2c[nH]cn2)C(=O)N[C@@H](CO)C(=O)N[C@@H](Cc2ccc(O)cc2)C(N)=O)C(C)C)[C@@H](C)O)[C@@H](C)CC)C(C)C)[C@@H](C)O)NC(=O)[C@H]([C@@H](C)O)NC(=O)CNC(=O)[C@H](Cc2ccccc2)NC(=O)[C@H](CCCNC(=N)N)NC1=O` [SEQ ID NO: 51] (H-[AEEA]K(Palmitoyl)GCRFGTCTVQKLAHQIYQFTDKDKQDSAPVDPSSPHSY-NH2; disulfide 4-9), the Emax is 65% on CLR/RAMP1 receptor and 107% on CLR/RAMP2 receptor.
In the same order, the values of `CCCCCCCCCCCCCCCC(=O)NCCCC[C@H](NC(=O)COCCOCCN)C(=O)NCC(=O)N[C@H]1CSSC[C@@H](C(=O)N[C@H](C(=O)N[C@H](C(=O)N[C@@H](CCC(N)=O)C(=O)N[C@@H](CCCCN)C(=O)N[C@@H](CC(C)C)C(=O)N[C@@H](C)C(=O)N[C@@H](Cc2c[nH]cn2)C(=O)N[C@@H](CCC(N)=O)C(=O)N[C@H](C(=O)N[C@@H](Cc2ccc(O)cc2)C(=O)N[C@@H](CCC(N)=O)C(=O)N[C@@H](Cc2ccccc2)C(=O)N[C@H](C(=O)N[C@@H](CC(=O)O)C(=O)N[C@@H](CCCCN)C(=O)N[C@@H](CC(=O)O)C(=O)N[C@@H](CCCCN)C(=O)N[C@@H](CC(=O)O)C(=O)N[C@@H](CC(N)=O)C(=O)N[C@H](C(=O)N[C@@H](C)C(=O)N2CCC[C@H]2C(=O)N[C@@H](CCCNC(=N)N)C(=O)N[C@@H](CO)C(=O)N[C@@H](CCCCN)C(=O)N[C@@H](CO)C(=O)N[C@@H](CO)C(=O)N2CCC[C@H]2C(=O)N[C@@H](Cc2c[nH]cn2)C(=O)N[C@@H](CO)C(=O)N[C@@H](Cc2ccc(O)cc2)C(N)=O)C(C)C)[C@@H](C)O)[C@@H](C)CC)C(C)C)[C@@H](C)O)NC(=O)[C@H]([C@@H](C)O)NC(=O)CNC(=O)[C@H](Cc2ccccc2)NC(=O)[C@H](CCCNC(=N)N)NC1=O` [SEQ ID NO: 61] are 70% and 92%.
Consider `CCCCCCCCCCCCCCCC(=O)NCCCC[C@H](NC(=O)COCCOCCN)C(=O)NCC(=O)N[C@H]1CSSC[C@@H](C(=O)N[C@H](C(=O)N[C@H](C(=O)N[C@@H](CCC(N)=O)C(=O)N[C@@H](CCCCN)C(=O)N[C@@H](CC(C)C)C(=O)N[C@@H](C)C(=O)N[C@@H](Cc2c[nH]cn2)C(=O)N[C@@H](CCC(N)=O)C(=O)N[C@H](C(=O)N[C@@H](Cc2ccc(O)cc2)C(=O)N[C@@H](CCC(N)=O)C(=O)N[C@@H](Cc2ccccc2)C(=O)N[C@H](C(=O)N[C@@H](CC(=O)O)C(=O)N[C@@H](CCCCN)C(=O)N[C@@H](CC(=O)O)C(=O)N[C@@H](CCCCN)C(=O)N[C@@H](CC(=O)O)C(=O)N[C@@H](CC(N)=O)C(=O)N[C@H](C(=O)N[C@@H](CC(=O)O)C(=O)N2CCC[C@H]2C(=O)N[C@@H](CO)C(=O)N[C@@H](CO)C(=O)N2CCC[C@H]2C(=O)N[C@@H](Cc2c[nH]cn2)C(=O)N[C@@H](CO)C(=O)N[C@@H](Cc2ccc(O)cc2)C(N)=O)C(C)C)[C@@H](C)O)[C@@H](C)CC)C(C)C)[C@@H](C)O)NC(=O)[C@H]([C@@H](C)O)NC(=O)CNC(=O)[C@H](Cc2ccccc2)NC(=O)[C@H](CCCNC(=N)N)NC1=O` [SEQ ID NO: 94], for which the Emax at CLR/RAMP1 receptor came to 67%; at CLR/RAMP2 receptor it was 82%. Besides, on CLR/RAMP2 receptor (CLR/RAMP2 versus CLR/RAMP1), the “receptor specificity of agonist” value was “CLR/RAMP2-specific”.
